Test results as given in patent US20260297542A1, “HERBICIDE RESISTANT PLANTS” (SYNGENTA CROP PROTECTION AG, priority 2023, published 2026).
Substitutions are numbered along the chain they refer to.

Assays:
[1] = target: T1, AtPPO1 S305L G404A Y426V T431R L479N (SEQ ID NO.127) (Arabidopsis thaliana, UniProt P55826, G404A/L479N/S305L/T431R/Y426V); test: fluorescent Protoporphyrinogen Oxidase assay, crude extract; format: biochemical; conditions: read-out: percentage inhibition
T1 construct: made in house; host or cells: E. coli BL21 (DE3) hemG, crude extract
T1 sequence (P55826 35-537 S305L/G404A/Y426V/T431R/L479N): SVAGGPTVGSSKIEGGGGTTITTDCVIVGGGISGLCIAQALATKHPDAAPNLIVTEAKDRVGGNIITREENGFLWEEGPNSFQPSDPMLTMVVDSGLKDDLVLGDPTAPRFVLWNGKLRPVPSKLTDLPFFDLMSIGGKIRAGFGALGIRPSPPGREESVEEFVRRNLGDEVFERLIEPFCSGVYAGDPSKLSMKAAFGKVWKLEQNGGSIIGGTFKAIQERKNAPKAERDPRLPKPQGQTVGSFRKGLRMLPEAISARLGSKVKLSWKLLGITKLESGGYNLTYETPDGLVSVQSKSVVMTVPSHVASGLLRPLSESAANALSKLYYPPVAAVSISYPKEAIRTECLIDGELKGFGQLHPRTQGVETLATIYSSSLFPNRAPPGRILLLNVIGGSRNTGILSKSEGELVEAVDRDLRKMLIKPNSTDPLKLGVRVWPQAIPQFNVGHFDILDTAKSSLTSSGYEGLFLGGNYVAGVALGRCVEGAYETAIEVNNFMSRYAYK
Description: (§1) A pET24 plasmid containing a DNA sequence encoding each identified variant mutant of AtPPO1 derived from Arabidopsis thaliana, codon-optimised for expression in E. coli, and under control of a T7 promoter, was synthesised by Twist Bioscience. This plasmid was expressed in E. coli BL21 (DE3) hemG with 50 μg/mL kanamycin and 25 μg/mL chloramphenicol selection. Overnight cultures grown at 37° C. were used to inoculate 150 ml AIM (AIM-Terrific Broth Base including Trace elements, Formedium) in 500 ml shake flasks at a ratio of 1:100. Cultures were grown at 37° C., 200 rpm for 3 hours and then overnight at 26° C. Cells were harvested by 4° C. centrifugation for 20 minutes at 600 rpm. Cells were stored at −80° C. until extraction. 0.5-1 g of cell pellet from was thawed and resuspended in ratio of 1:1 in lysis buffer (20 mM Tris pH8, 500 mM sodium chloride, 10% glycerol, 1× complete Protease EDTA-free Inhibitor Tablet (Roche)). The resuspension was sonicated at 50% using 10-20 cycles of 10 seconds, 20 seconds off. After sonication Triton X-100 was added to the lysates at a final concentration of 0.5%. The lysates were centrifuged at 13.00 rpm for 10 min at 4° C. The crude extracts (i.e, supernatants) were stored at −80° C. Protein concentration was measured and calculated using the absorbance at 280 nm. Extracts were diluted 1 in 4 and 10 uL was analysed by SDS PAGE.
(§2) Variant crude extracts were assayed in a fluorescent Protoporphyrinogen Oxidase assay in black 384 well plates with a clear bottom. The total volume of the reaction mixture was 100 ul and contained 100 mM K2HPO4 pH7.2, 1 mM Na2EDTA, 5 mM DTT, 20% glycerol (v/v), 0.025% Tween 20 (v/v). Reactions were started with addition of 1 uM protoporphyrinogen IX final assay concentration. Fluorescence was monitored over 30 min using a Tecan plate reader with an excitation wavelength of 405 nm, emission wavelength of 635 nm, gain of 90 and 15 flashes. 10 ul of 3-fold serial dilution of crude extract in 100 mM K2HPO4 pH7.2, 1 mM Na2EDTA, 5 mM DTT, 20% glycerol (v/v), 0.05% Tween 20 (v/v) was tested in the assay against 1% DMSO and 100 ppm herbicide B to determine the correct amount of crude extract to add to the assay to observe activity. 10 ul of the appropriate crude extract dilution was then tested in the fluorescent Protoporphyrinogen Oxidase assay against DMSO and 10-fold dose response of each compound (herbicides A to E) with a top rate of 100 ppm.
(§3) The percentage inhibition was calculated as the activity in the presence of one of four concentrations of each herbicide compound A to E (note that the compounds labelled as A to E are identified hereinabove in the relevant section of the description) as a percentage of the enzyme activity in DMSO (Table 5).

[2] = target: T2, AtPPO1 Y426M T461Q L479M (SEQ ID NO.132) (Arabidopsis thaliana, UniProt P55826, L479M/T461Q/Y426M); test: as above; format: biochemical; conditions: read-out: percentage inhibition
T2 construct: made in house; host or cells: E. coli BL21 (DE3) hemG, crude extract
T2 sequence (P55826 35-537 Y426M/T461Q/L479M): T1 sequence (P55826 35-537 S305L/G404A/Y426V/T431R/L479N) with L271S, A370G, V392M, R397T, T427Q, N445M
Description: as §1, §2, §3

CCOC(=O)COc1ncccc1Oc1cc(-n2c(=O)cc(C(F)(F)F)n(C)c2=O)c(F)cc1Cl [Herbicide A, epyrifenacil]
inhibition at 0.1 ppm [1]: 9%
inhibition at 1 ppm [1]: 45%
inhibition at 10 ppm [1]: 69%
inhibition at 100 ppm [1]: 88%
inhibition at 0.1 ppm [2]: 10%
inhibition at 1 ppm [2]: 51%
inhibition at 10 ppm [2]: 77%
inhibition at 100 ppm [2]: 100%

C#CCN1C(=O)C(F)(F)Oc2cc(F)c(-n3c(=O)n(C)c(=S)n(C)c3=O)cc21 [Herbicide B, trifludimoxazin]
inhibition at 0.1 ppm [1]: 91%
inhibition at 1 ppm [1]: 100%
inhibition at 10 ppm [1]: 100%
inhibition at 100 ppm [1]: 100%
inhibition at 0.1 ppm [2]: 100%
inhibition at 1 ppm [2]: 100%
inhibition at 10 ppm [2]: 100%
inhibition at 100 ppm [2]: 100%

CCOC(=O)C1(C)CC(c2cc(-n3c(=O)cc(C(F)(F)F)n(C)c3=O)c(F)cc2Cl)=NO1 (stereo not shown) [Herbicide C, 3-(2-chloro-4-fluoro-5-(3-methyl-2,6-dioxo-4-trifluoromethyl-3,6-dihydropyrimidin-1(2H)-yl)phenyl)-5-methyl-4,5-dihydroisoxazole-5-carboxylic acid ethyl ester]
inhibition at 0.1 ppm [1]: 47%
inhibition at 1 ppm [1]: 57%
inhibition at 10 ppm [1]: 83%
inhibition at 100 ppm [1]: 96%
inhibition at 0.1 ppm [2]: 26%
inhibition at 1 ppm [2]: 54%
inhibition at 10 ppm [2]: 75%
inhibition at 100 ppm [2]: 100%

CCOC(=O)[C@]1(C)CC(c2cc(-n3c(=O)n(C)c(=S)n(C)c3=O)c(F)cc2Cl)=NO1 [Herbicide D, ethyl (5S)-3-[2-chloro-5-(3,5-dimethyl-2,6-dioxo-4-thioxo-1,3,5-triazinan-1-yl)-4-fluoro-phenyl]-5-methyl-4H-isoxazole-5-carboxylate]
inhibition at 0.1 ppm [1]: 13%
inhibition at 1 ppm [1]: 40%
inhibition at 10 ppm [1]: 75%
inhibition at 100 ppm [1]: 92%
inhibition at 0.1 ppm [2]: 58%
inhibition at 1 ppm [2]: 79%
inhibition at 10 ppm [2]: 95%
inhibition at 100 ppm [2]: 100%

CC(C)N(C)S(=O)(=O)NC(=O)c1cc(-n2c(=O)cc(C(F)(F)F)n(C)c2=O)c(F)cc1Cl [Herbicide E, saflufenacil]
inhibition at 0.1 ppm [1]: 11%
inhibition at 1 ppm [1]: 48%
inhibition at 10 ppm [1]: 75%
inhibition at 100 ppm [1]: 92%
inhibition at 0.1 ppm [2]: 0%
inhibition at 1 ppm [2]: 26%
inhibition at 10 ppm [2]: 70%
inhibition at 100 ppm [2]: 100%
